One substance from patent US12152060B2, “Interleukin-2 variants and methods of uses thereof” (Cugene Inc, priority 2018, dated 2024) can be followed below.

The test system of test [1] is STAT5 phosphorylation in CD4+/Foxp3+/CD25+ Treg, CD4+/Foxp3-/CD25+ CD4 effector and CD4+/Foxp3-/CD25- CD4 naive T cell subsets. As to the kind of experiment: STAT5 phosphorylation in three CD4+ T cell subsets, human PBMC. The format is cell-based. The note with it: FIG. 9. As to the method: After human PBMC Cells were treated with serial dilutions of test compounds, fixed and permeabilized, washed, and stained with a mixture of anti-CD25-PE, anti-FOXP3-APC, anti-pSTAT5-FITC, and anti-CD4-PerCP-Cy5.5 antibodies, the flow cytometry analysis was gated into CD4+/Foxp3+/CD25+, CD4+/Foxp3−/CD25+, CD4+/Foxp3−/CD25− groups for the Treg, CD4 effector, and CD4 naive T cell subsets, respectively. Data are expressed as a percent of pSTAT5 positive cells in gated population and illustrated in FIG. 9.

The test system of test [2] is Treg cells, CD4+ Tconv, CD8 T and NK cells in blood. As to the kind of experiment: Dose-response pharmacodynamics study in mice following a single injection. Format: in vivo, mouse. As to the method:
Following a single subcutaneous administration of vehicle (PBS) or P-0511 (1, 0.3, 0.1, or 0.03 mg/kg) to female Balb/C mice (n=5/group), peripheral blood was collected on day-2 as baseline, and post dose on days 3, 5, and 7. On day 7, mice were sacrificed, and spleens were harvested. Blood lymphocyte phenotyping, proliferation and expansion were measured by flow cytometry at each timepoint using fresh whole blood.

Test [3] deals with STAT5 phosphorylation in CD4+ Treg cells (CD4+/Foxp3+/CD25high). As to the kind of experiment: STAT5 phosphorylation in CD4+ Treg cells, human PBMC assay by FACS. Format: cell-based. The following applies: pSTAT5, Treg versus Tconv. The text has this:
Single amino acid substitutions were introduced to IL-2 at positions corresponding to amino acids interacting with receptor subunit(s) β or γ or By. These substitutions were aimed to reduce IL-2 signaling capacity through the intermediate affinity IL-2Rβγ complex and confer signaling specificity from the high affinity IL-2Rαβγ. IL-2 variants containing single amino acid substitutions were examined for their ability to differentially stimulate STAT5 phosphorylation in CD4 positive Treg and Tconv cells. STAT5 is known to be involved in the downstream signaling cascade upon IL-2 binding to the transmembrane IL-2 receptors. The phosphorylation of STAT5 in defined lymphocyte subpopulations was measured using fresh human peripheral blood mononuclear cells (PBMC) and the forkhead transcription factor FOXP3 was used to identify the Treg population in FACS analysis.
Briefly, human PBMC were isolated by Ficoll-Hypaque centrifugation from the buffy coat of a healthy donor. PBMC were starved in serum-free MACS buffer at 4° C. for 1 hour. 2×10^5 PBMC were then treated with serial dilutions of test compounds for 30 min at 37° C. Cells were fixed and permeabilized with Foxp3/Transcription Factor Staining Buffer Set (EBIO) by incubating with 1× Foxp3 fixation/permeabilization working solution for 30 minutes and washing with 1× permeabilization buffer. Cells were additionally fixed with Cytofix buffer and permeabilized with Perm Buffer III (BD Biosciences) and then washed. After blocking Fc receptors by adding human TruStain™ FcX (1:50 dilution), cells were stained with a mixture of anti-CD25-PE, anti-FOXP3-APC, anti-pSTAT5-FITC, and anti-CD4-PerCP-Cy5.5 antibodies at concentrations recommended by the manufacturer for 45 minutes at room temperature. Cells were collected by centrifugation, washed, resuspended in FACS buffer, and analyzed by flow cytometry. The flow cytometry data was gated into CD4+/Foxp3+/CD25^high and CD4+/Foxp3−/CD25^low groups for the Treg and CD4 conventional T cell subsets, respectively. Data are expressed as a percent of pStat5 positive cells in gated population.

In test [4] the test system is Treg cells in blood. As to the kind of experiment: Pharmacodynamics study in mice following repeated administration (Q3D). Format: in vivo, mouse. The following applies: 0.3 mg/kg s.c. Q3D x3; compared to P-0531 and Benchmark-1. As to the method: Female Balb/C mice (7-week old) were acclimated in house for 5-7 days before the study. Vehicle (PBS), 0.3 mg/kg of P-0511, P-0512, P-0531, or Benchmark-1 compound were subcutaneously administered to mice (n=5/group) on days 0, 3, and 6. On days 3 and 9, three days after the first injection and multiple (3) injections, respectively, peripheral blood was collected. Based on earlier in vivo experiments, Treg cell activation, proliferation, and expansion were expected to peak on day 3, and thus three days post injection was selected for data collection and analysis. Changes in blood lymphocyte activation, proliferation, and expansion were measured by flow cytometry. P-0531 is the S125I equivalent of the wild type IL-2 fusion protein. The Benchmark-1 contains V91K mutation.

Test [5] relates to delayed-type hypersensitivity (DTH) mouse model. As to the kind of experiment: KLH-induced delayed-type hypersensitivity (DTH) mouse model, ear thickness. The format is in vivo. The note with it: for inhibition of ear inflammation (KLH-induced DTH), separate study: Q5D. As to the method:
The ability of Treg cells induced by IL-2 variants to suppress T cell antigen-driven inflammation in vivo was assessed in a model of delayed-type hypersensitivity (DTH). Female Balb/C mice (7-week old) were acclimated in house for 7 days and randomized into groups. Subcutaneous administration of vehicle (PBS), P-0511 at either 0.1 mg/kg or 0.3 mg/kg was initiated on day-2 and was given either once every 3 days (Q3D) for three injections or once every 5 days (Q5D) for two injections. Mice were then sensitized with a subcutaneous administration of 100 μg keyhole limpet hemocyanin (KLH) in 200 μl saline on day 0. For Q3D dosing, two more subcutaneous injections of PBS or P-0511 (0.1 or 0.3 mg/kg) were administered on days 1 and 4; for Q5D dosing, one additional s.c. injection of PBS, 0.1 or 0.3 mg/kg P-0511 was administered on day 3. Mice received an intradermal challenge of KLH (5 μg in 10 μl saline) in right ear on day 5. Right ear thickness was measured using a caliper on day 5 prior KLH challenge and daily from day 6 to day 8 corresponding to 24 h, 48h, and 72 h post KLH challenge. One group of mice also received 5 mg/kg daily i.p. treatment of dexamethasone from day 5 to day 8 as a positive control.
Kinetics of the DTH response using the change in ear thickness relative to baseline values (Δ ear thickness) at various times after KLH challenge was illustrated in FIG. 23.
In a separate study, dose-dependent response of P-0511 (0.1, 0.3 and 1 mg/kg, Q5D) on suppression of KLH-induced DTH was determined and compared with Benchmark-1 (0.3 mg/kg, Q5D).

Regarding “P-0511: Fc fusion protein of IL-2 variant L19H/S125I/Q126E; SEQ ID NO: 198”, the “pSTAT5 potency and selectivity in Treg, Teff and naive CD4 T cell subsets (in words)” value in test [1] was “preferential activation of Treg over Teff”; in test [1] (listed as P-511), “superior to both Benchmark-2 and -3”. The “Treg/Tconv ratio, peak (based on cell count)” value in test [2] (0.1 mg/kg single dose) is on record as 0.06; in test [2] (0.3 mg/kg single dose), 0.18; in test [2] (1 mg/kg single dose), 0.27. Moreover, the “percentages of CD4+ Tconv, CD8 Teff or NK cells over the total lymphocytes” value in test [2] (0.03-1 mg/kg single dose) is reported as “no statistically significant changes”. For the same substance, the “window for selective activation of Treg cells over CD4+ Tconv cells (in words)” value in test [3] is “further widened the Treg selectivity window”. The “Treg cell counts, fold changes relative to PBS and Treg/Tconv ratio” value in test [4] is “superior capabilities to sustain Treg pool”. Besides, the “suppression of antigen-driven inflammation (Δ ear thickness)” value in test [5] (0.1 mg/kg s.c., Q3D and Q5D) is “did not reach statistical significance”; in test [5] (0.3 mg/kg s.c., Q3D or Q5D, all time points post KLH challenge), “evident”. For the same substance, the “inhibition of ear inflammation (KLH-induced DTH), separate study” value is given as “mild” in test [5] (0.1 mg/kg), “Intermediate” in test [5] (0.3 mg/kg) and “strong resistance to KLH-induced DTH” in test [5] (1 mg/kg).
